Entries after “also recorded” stand apart in the source; their conditions may differ.
Key:
[1] = tested on: HT-22 cells; experiment: TNFα-induced ROS; format: cell-based, mouse; details: for ROS suppression at 40 μM / effect on TNFα-induced ROS, in words: 1 μg/mL TNFα; for ROS suppression at 40 μM: 40 μM compound, Figure 4A; for effect on TNFα-induced ROS, in words: all concentrations tested
[2] = tested on: THP-1 cells; experiment: Measurement of cellular NAD+ levels in THP-1 cell cultures; format: cell-based, human; details: for ability to raise NAD+ levels compared with parent NP-A3-B2: initial screening, 3 μM, 24 h, data not shown
[3] = tested on: HT-22 cells; experiment: Glutamate-induced ROS; format: cell-based, mouse; details: 75 mM glutamate, 20 μM and 40 μM compound, Figure 4D
[4] = biological target: NAMPT (Homo sapiens, UniProt P43490); experiment: NAMPT coupled enzyme activity assay; format: biochemical
Sequence of NAMPT (P43490 whole entry): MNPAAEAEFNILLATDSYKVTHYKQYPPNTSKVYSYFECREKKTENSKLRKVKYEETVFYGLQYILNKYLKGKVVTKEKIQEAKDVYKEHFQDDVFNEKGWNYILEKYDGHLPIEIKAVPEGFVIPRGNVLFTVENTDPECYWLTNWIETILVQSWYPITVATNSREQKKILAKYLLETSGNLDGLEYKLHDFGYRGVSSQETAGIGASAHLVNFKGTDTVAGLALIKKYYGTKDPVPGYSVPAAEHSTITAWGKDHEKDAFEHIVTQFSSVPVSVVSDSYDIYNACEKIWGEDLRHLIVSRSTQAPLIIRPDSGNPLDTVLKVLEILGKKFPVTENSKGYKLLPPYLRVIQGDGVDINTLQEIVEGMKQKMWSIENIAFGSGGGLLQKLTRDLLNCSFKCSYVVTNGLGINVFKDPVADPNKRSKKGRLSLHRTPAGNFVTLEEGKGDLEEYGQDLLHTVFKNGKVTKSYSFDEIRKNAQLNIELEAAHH

COc1ccc(CN(CCC2(C(C)C)CCOC(C)(C)C2)C(=O)c2cccs2)cc1 (stereo not shown) [JGB-1-137]
ROS suppression at 40 μM [1]: significantly suppressed ROS

CC(C)C1(CCN(Cc2ccc3[nH]ccc3c2)C(=O)c2ccco2)CCOC(C)(C)C1 (stereo not shown) [JGB-1-134]
ability to raise NAD+ levels compared with parent NP-A3-B2 [2]: significantly greater ability to raise NAD^+ levels
effect on TNFα-induced ROS, in words [1]: did not inhibit ROS generation

CC(C)C1(CCN(Cc2ccc(N(C)C)cc2)C(=O)c2ccco2)CCOC(C)(C)C1 (stereo not shown) [JGB-1-155]
concentration response for FK866 in the presence of compound ([2]; THP-1 NAD+, Figure 3B): right-shifted
potency in THP-1 cell cultures relative to NP-A3-B2 ([2]; full concentration-response, NAD+): improved potency
ability to raise NAD+ levels compared with parent NP-A3-B2 [2]: significantly greater ability to raise NAD^+ levels
ROS suppression at 40 μM [1]: significantly suppressed ROS
reduction of TNFα-induced ROS, confirmation assay ([1]; 20 μM and 40 μM compound, Figure 4B): significant reduction
ROS levels under glutamate insult [3]: decreased ROS levels below that of the vehicle-treated control

COc1ccc(CN(CCC2(C(C)C)CCOC(C)(C)C2)C(=O)c2ccco2)cc1 (stereo not shown) [NP-A3-B2]
ROS suppression at 40 μM [1]: significantly suppressed ROS

COc1ccc(CN(CCC2(C(C)C)CCOC(C)(C)C2)C(=O)c2ccsc2)cc1 (stereo not shown) [JGB-1-127]
effect on TNFα-induced ROS, in words [1]: did not inhibit ROS generation

COc1ccc(CN(CCC2(C(C)C)CCOC(C)(C)C2)C(=O)c2cnc[nH]2)cc1 (stereo not shown) [JGB-1-147]
NAMPT enzyme activity, in words [4]: inhibitory activity; also recorded: inhibits NAMPT

O=C(NCc1ccncc1)Nc1ccc(S(=O)(=O)N2CC3CCC(C2)O3)cc1 [SBI-797812, reference compound]
effect on TNFα-induced ROS, in words [1]: no significant effect on ROS

Reference: publication PMC10860701 (ACS Medicinal Chemistry Letters, 2024)
